Assay results: ChEMBL document CHEMBL1201862, “PubChem BioAssay data set” (2004)
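Grown in 96-well plates, cells were treated for 48 hours with each compound at five concentrations. Insufficient inhibition: endpoint recorded as highest concentration tested. GI50 marks 50% less growth.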 Calls of active or inactive are those of the source. Rule as the data show it: active = GI50 up to about 1.1 µM and inactive = higher.

Columns and labels:
Assay in all cases: DTP human tumour cell line panel, 48 h
[1] = test system: 786-0
[2] = test system: CAKI-1
[3] = test system: HCC 2998
[4] = test system: IGROV-1
[5] = test system: M14
[6] = test system: MCF7
[7] = test system: MDA-MB-435
[8] = test system: MDA-N
[9] = test system: NCI-H226
[10] = test system: NCI-H23
[11] = test system: OVCAR-4
[12] = test system: OVCAR-5
[13] = test system: OVCAR-8
[14] = test system: RPMI-8226
[15] = test system: SF-295
[16] = test system: SN12C
[17] = test system: SR
[18] = test system: U-251
[19] = test system: UACC-257
[20] = test system: UO-31

Measured: GI50

c1ccc(-c2nnn(CCN3CCCCC3)n2)cc1
inactive: [1] > 100 µM | [2] > 100 µM | [3] > 100 µM | [4] > 100 µM | [5] > 100 µM | [6] > 100 µM | [7] > 100 µM | [8] > 100 µM | [9] > 100 µM | [10] > 100 µM | [11] > 100 µM | [12] > 100 µM | [13] > 100 µM | [14] > 100 µM | [15] > 100 µM | [16] > 100 µM | [17] > 100 µM | [18] > 100 µM | [19] > 100 µM | [20] > 100 µM

O=C1N/C(=N\N=C\c2ccccc2)C2(CCCCC2)O1
inactive: [1] 64.9 µM | [2] 84.9 µM | [3] 87.3 µM | [4] > 100 µM | [5] > 100 µM | [6] > 100 µM | [7] > 100 µM | [8] > 100 µM | [9] 44.5 µM | [10] > 100 µM | [11] > 100 µM | [12] > 100 µM | [13] 99.5 µM | [14] 53.5 µM | [15] 55.1 µM | [16] 95.3 µM | [17] 16.3 µM | [18] 77.8 µM | [19] > 100 µM | [20] 43.1 µM

O=c1cc(-c2ccccc2)oc2ccc(Oc3nnnn3-c3ccccc3)cc12
inactive: [1] 25.9 µM | [2] > 50.1 µM | [3] > 100 µM | [4] > 75.5 µM | [5] > 100 µM | [6] > 45.9 µM | [7] 11.9 µM | [8] 5.15 µM | [9] 25 µM | [10] > 62.7 µM | [11] > 28.2 µM | [12] > 100 µM | [13] 42 µM | [14] > 100 µM | [15] 29.2 µM | [16] > 42.3 µM | [17] > 33.1 µM | [18] 35 µM | [19] > 100 µM | [20] > 100 µM
